Article PMC12610573, “New Chlormequat-Based Ionic Liquids as Plant Resistance Inducers” (Molecules, 2025)

Columns and labels:
[1] = system: radish (Raphanus sativus) sprouts; assay: Phytotoxicity test on radish sprouts; assay type: in vivo; conditions: for Reduction in Sprout Mass: compared with untreated control; for Mass of 25 Sprouts: radish, 5 days, UTC 3.09 g; for Phytotoxic effect on radish sprout mass: versus control
Protocol: Twenty five seeds of radish (Raphanus sativus) were placed on a filter tissue in a Petri dish. […] Then, sprouts were weighted. All variants of treatment were tested together, with 3 replications (plates) in each of 2 cycles performed. Results were subjected to statistical analysis as described in Section 4.8.
(§1) Statistical significance of the effect of the treatments of plants with tested compounds on the phytotoxicity and SAR induction was assessed with the ANOVA test performed using the Statistica program StatSoft with software version 9.1 (StatSoft Sp. z o.o., Kraków, Poland). The statistical assumptions of normality and homogeneity of variances were verified prior to conducting the ANOVA tests. Differences between the means were estimated with Tukey’s HSD test at the significance level of p = 0.05.

[2] = system: Tobamovirus tabaci (tobacco mosaic virus, TMV) on Nicotiana tabacum cv. Xanthi; assay: SAR induction assay: necrotic area after TMV inoculation of sprayed tobacco; assay type: in vivo; conditions: for SAR Induction (percentage of necrotic area on leaves): TMV inoculation after 7 days, read 7 days later, UTC 34.54; for Percentage of necrotic spot coverage (leaf shown in supplementary figure): single leaf image; for pest or weed control at 125 µg/mL / pest or weed control at 250 µg/mL: topical, read-out: Reduction in Necrotic Area; for pest or weed control at 125 µg/mL / pest or weed control at 250 µg/mL / Reduction in Necrotic Area: compared with untreated control plants
Protocol: Plants of Nicotiana tabacum cv. Xanthi were grown under greenhouse conditions at 25 °C and 50% relative humidity, under natural daylight during the May–August growing season, with a natural photoperiod. The plants were sprayed with solutions containing the tested compounds.
In all experiments, the TMV SL-1 isolate Tobamovirus (TMV) was used. To obtain a viral inoculum, Nicotiana tabacum cv. Samsun plants were sap-inoculated with previously virus-infected plant material. After the appearance of disease symptoms on the infected plants (leaf mosaic), the virus was isolated by sucrose density gradient centrifugation with 0.01 M Tris-HCl, pH 7.0, to prepare the infectious inoculum. The concentration of virus in the obtained preparation was determined spectrophotometrically. The samples of TMV were stored at −20 °C until use.
The tested active substances at a given concentration were sprayed on tobacco plants with three fully developed leaves. The volume of working solution used was equal to 10 mL per plant. The compounds were dissolved in a water/propylene glycol solution (95/5, v/v). The plants of the untreated control variant were sprayed with a water/propylene glycol solution (95/5, v/v) that was used for the preparation of solutions of the tested compounds. After seven days, the plants were mechanically inoculated using purified viral preparations (0.01 ng/mL as described in [34]).
The plants were inoculated with the TMV inoculum at a concentration of 3.8 × 10^−4 ng per leaf. For each variant of treatment, 3 plants were sprayed, and 3 leaves of each plant were analyzed. The entire experiment was performed in 2 replicates. Necrotic areas on the leaves were determined using ImageJ software.
The surface of a leaf or an area with necrotic spots is represented by a set of pixels in the image, which are counted by the program. Reduction in necrotic area (ISAR) is expressed by the following formula:(1) ISAR=100−(At/Ac∗100) where At is the ratio of the area of necrotic spots caused by viral infection that appeared on the leaf treated with the test substance to the whole area of the leaf; Ac is the ratio of the area of the necrotic spots caused by viral infection that appeared on the leaf of the control plant to the whole area of the leaf.
as §1

[3] = Solubility tests in representative solvents (Vogel protocol); conditions: 25 °C; for solubility: thermodynamic from solid
Protocol: The solubilities of the prepared ILs in ten representative solvents were determined according to the protocols from Vogel’s Textbook of Practical Organic Chemistry. The solvents chosen for the study were arranged in order of descending value of their Snyder polarity index: water—9.0, methanol—6.6, acetone—5.1, isopropanol—4.3, toluene—2.3, and hexane—0.0.

[4] = Thermogravimetric analysis (TGA), thermal stability; conditions: TGA under nitrogen, 10 °C/min; for Thermal Stability T5%onset: 5% weight loss onset; for Thermal Stability Tonset: decomposition onset
Protocol: TGA was performed on a TGA Q50 (Texas Instruments, Dallas, TX, USA) under nitrogen. Samples (5–10 mg) were heated from 25 °C to 500 °C at 10 °C/min with an isothermal step at 85 °C for 10 min. T5%onset and Tonset values were recorded.

| SMILES | Reduction in Sprout Mass ([1]; 125 mg/L) [%] | Mass of 25 Sprouts ([1]; 125 mg/L) | Reduction in Sprout Mass ([1]; 250 mg/L) [%] | Mass of 25 Sprouts ([1]; 250 mg/L) | SAR Induction (percentage of necrotic area on leaves) ([2]; 125 mg/L spray) | SAR Induction (percentage of necrotic area on leaves) ([2]; 250 mg/L spray) | pest or weed control at 125 µg/mL ([2]; 125 mg/L) [%] | pest or weed control at 250 µg/mL ([2]; 250 mg/L) [%] | other results |
| --- | --- | --- | --- | --- | --- | --- | --- | --- | --- |
| O=C(O)c1ccccc1O [Salicylic acid] | 29.77 | 2.17 cd B g | 63.27 | 1.14 bc A g | 26.60 fg C % | 25.06 g C % | 23 | 27.4 | Percentage of necrotic spot coverage (leaf shown in supplementary figure) ([2]; 125 mg/L): 23.67%; Percentage of necrotic spot coverage (leaf shown in supplementary figure) ([2]; 250 mg/L): 19.86% |
| O=C(O)c1cccnc1 [Nicotinic acid] | 10.79 | 2.76 gh B |  | 2.63 j AB g | 27.69 fg C % | 22.07 g B % | 19.8 | 36.1 |  |
| C[N+](C)(C)CCCl [[CC][Cl], Chlormequat chloride, reference compound] | 24.00 | 2.35 def B g |  | 2.08 fgh A |  |  |  |  | Solubility in Isopropanol [3]: remained insoluble; solubility ([3]; organic solvent or mixture, Solubility in Acetone, Snyder polarity index 5.1): < 33.3 mg/mL; solubility ([3]; organic solvent or mixture, Solubility in Hexane, Snyder polarity index 0.0): < 33.3 mg/mL; solubility ([3]; organic solvent or mixture, Solubility in Isopropanol, Snyder polarity index 4.3): < 33.3 mg/mL; solubility ([3]; organic solvent or mixture, Solubility in Methanol, Snyder polarity index 6.6): > 100 mg/mL; solubility ([3]; organic solvent or mixture, Solubility in Toluene, Snyder polarity index 2.3): < 33.3 mg/mL; solubility ([3]; water, Solubility in Water, Snyder polarity index 9.0): > 100 mg/mL; Thermal Stability T5%onset [4]: 255.0 °C; Thermal Stability Tonset [4]: 259.8 °C |
| C[N+](C)(C)CCCl.O=C([O-])c1ccncc1 [[CC][IsoNic]] | 15.70 | 2.60 fgh C | 35.65 | 1.99 efg AB | 24.51 ef A % | 21.48 g A % |  |  | Reduction in Necrotic Area ([2]; 125 mg/L): 29.0%; Reduction in Necrotic Area ([2]; 250 mg/L): 37.8%; Thermal Stability T5%onset [4]: 164.3 °C; Thermal Stability Tonset [4]: 85.3 °C |
| O=C(O)c1ccncc1 [Isonicotinic acid] | 29.07 | 2.19 cde B g | 42.83 | 1.77 e A g | 31.12 gh B % | 25.58 g A % | 9.9 | 26 |  |
| O=C(O)c1cc(Cl)cc(Cl)c1O [3,5-dichlorosalicylic acid] | 32.96 | 2.07 bcd B g | 59.49 | 1.25 cd A g | 15.03 cd B % | 7.51 bcd A % | 56.5 | 78.3 |  |
| C[N+](C)(C)CCCl.O=C([O-])c1cccnc1 [[CC][Nic]] | 8.20 | 2.84 hi B g | 26.16 | 2.28 hi A g | 19.70 de B % | 11.52 def A % |  |  | Phytotoxic effect on radish sprout mass ([1]; 125 mg/L): no phytotoxic effect; Phytotoxic effect on radish sprout mass ([1]; 250 mg/L): significant decrease in the radish sprout mass; Reduction in Necrotic Area ([2]; 125 mg/L): 43.0%; Reduction in Necrotic Area ([2]; 250 mg/L): 66.7%; Thermal Stability T5%onset [4]: 166.9 °C; Thermal Stability Tonset [4]: 89.9 °C |
| O=C(O)c1cc(Cl)ccc1O [5-chlorosalicylic acid] | 37.16 | 1.94 abc B g | 59.87 | 1.24 cd A g | 4.23 a B % | 3.28 ab AB % | 87.8 | 90.5 | Percentage of necrotic spot coverage (leaf shown in supplementary figure) ([2]; 125 mg/L): 2.98%; Percentage of necrotic spot coverage (leaf shown in supplementary figure) ([2]; 250 mg/L): 1.28% |
| O=C(O)c1cc(Cl)nc(Cl)c1 [2,6-dichloroisonicotinic acid] | 40.29 | 1.85 ab B g | 54.31 | 1.41 d A g | 18.15 cd B % | 14.90 f AB % | 47.5 | 56.9 |  |
| O=C(O)c1ccc(Cl)cc1O [4-chlorosalicylic acid] | 46.55 | 1.65 a B g | 68.45 | 0.98 ab A g | 17.06 cd C % | 8.68 cde AB % | 50.6 | 74.9 |  |
| O=C(O)c1cccc(Cl)c1O [3-chlorosalicylic acid] | 47.03 | 1.64 a B g | 72.65 | 0.85 a A g | 4.95 a B % | 2.59 a AB % | 85.7 | 92.5 | Percentage of necrotic spot coverage (leaf shown in supplementary figure) ([2]; 125 mg/L): 2.62%; Percentage of necrotic spot coverage (leaf shown in supplementary figure) ([2]; 250 mg/L): 2.30% |
